ChEMBL document CHEMBL1201862, “PubChem BioAssay data set” (2004)
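Exposure lasted 48 hours, with cells grown in 96-well plates and compounds tested at five concentrations. The concentration for 50% growth inhibition is given as GI50.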 Activity calls are given as the source filed them. Rule as the data show it: active = GI50 up to about 1.1 µM and inactive = higher.

How the values were obtained:
Assay in all cases: NCI-60 cell line screen, 48 h
SR = tested on: SR
MDA-N = tested on: MDA-N
NCI-H23 = tested on: NCI-H23
SW-620 = tested on: SW-620
UACC-62 = tested on: UACC-62
HCT-116 = tested on: HCT-116
UACC-257 = tested on: UACC-257
SK-MEL-28 = tested on: SK-MEL-28
786-0 = tested on: 786-0
NCI-H460 = tested on: NCI-H460
ACHN = tested on: ACHN
SK-OV-3 = tested on: SK-OV-3
HOP-92 = tested on: HOP-92
SN12C = tested on: SN12C
K562 = tested on: K562
M14 = tested on: M14
IGROV-1 = tested on: IGROV-1
MDA-MB-435 = tested on: MDA-MB-435
COLO 205 = tested on: COLO 205
OVCAR-3 = tested on: OVCAR-3
SNB-19 = tested on: SNB-19
PC-3 = tested on: PC-3
HOP-62 = tested on: HOP-62
CAKI-1 = tested on: CAKI-1
RPMI-8226 = tested on: RPMI-8226
SK-MEL-5 = tested on: SK-MEL-5
EKVX = tested on: EKVX
OVCAR-8 = tested on: OVCAR-8
SF-295 = tested on: SF-295
OVCAR-4 = tested on: OVCAR-4
HL-60 = tested on: HL-60
KM12 = tested on: KM12
SF-539 = tested on: SF-539
A549 = tested on: A549
NCI/ADR-RES = tested on: NCI/ADR-RES
HT-29 = tested on: HT-29
LOX IMVI = tested on: LOX IMVI
MCF7 = tested on: MCF7
NCI-H522 = tested on: NCI-H522
MDA-MB-231 = tested on: MDA-MB-231
UO-31 = tested on: UO-31
SNB-75 = tested on: SNB-75
MOLT-4 = tested on: MOLT-4
SK-MEL-2 = tested on: SK-MEL-2
CCRF-CEM = tested on: CCRF-CEM
BT-549 = tested on: BT-549
RXF 393 = tested on: RXF 393
NCI-H226 = tested on: NCI-H226
U-251 = tested on: U-251
A498 = tested on: A498
DU-145 = tested on: DU-145
Malme-3M = tested on: Malme-3M
OVCAR-5 = tested on: OVCAR-5
HCC 2998 = tested on: HCC 2998

Measured: GI50

CCOC(=O)C(=[N+]=[N-])C(=O)Nc1nn2nnnc2c2ccccc12
inactive: SR > 100 µM | MDA-N > 100 µM | NCI-H23 > 100 µM | SW-620 > 100 µM | UACC-62 > 100 µM | HCT-116 > 100 µM | UACC-257 > 100 µM | SK-MEL-28 > 100 µM | 786-0 > 100 µM | NCI-H460 > 100 µM | ACHN > 100 µM | SK-OV-3 > 100 µM | HOP-92 > 100 µM | SN12C > 100 µM | K562 > 100 µM | M14 > 100 µM | IGROV-1 > 100 µM | MDA-MB-435 > 100 µM | COLO 205 > 100 µM | OVCAR-3 > 100 µM | SNB-19 > 100 µM | PC-3 > 100 µM | HOP-62 > 100 µM | CAKI-1 > 100 µM | RPMI-8226 > 100 µM | SK-MEL-5 > 100 µM | EKVX > 100 µM | OVCAR-8 > 100 µM | SF-295 > 100 µM | OVCAR-4 > 100 µM | HL-60 > 100 µM | KM12 > 100 µM | SF-539 > 100 µM | A549 > 100 µM | NCI/ADR-RES > 100 µM | HT-29 > 100 µM | LOX IMVI > 100 µM | MCF7 > 100 µM | NCI-H522 > 100 µM | MDA-MB-231 > 100 µM | UO-31 > 100 µM | SNB-75 33.8 µM | MOLT-4 > 100 µM | SK-MEL-2 > 100 µM | CCRF-CEM > 100 µM | BT-549 > 100 µM | RXF 393 > 100 µM | NCI-H226 > 100 µM | U-251 > 100 µM | A498 > 100 µM | DU-145 > 100 µM | Malme-3M > 100 µM | OVCAR-5 > 100 µM | HCC 2998 > 100 µM

O=C1ON=C2C3CC4CC12CC1(C3)C(=O)ON=C41
inactive: SR > 100 µM | MDA-N > 100 µM | NCI-H23 > 100 µM | SW-620 > 100 µM | UACC-62 > 100 µM | HCT-116 > 100 µM | UACC-257 > 100 µM | SK-MEL-28 > 100 µM | 786-0 > 100 µM | NCI-H460 > 100 µM | ACHN > 100 µM | HOP-92 > 100 µM | SN12C > 100 µM | K562 > 100 µM | M14 > 100 µM | IGROV-1 > 100 µM | MDA-MB-435 > 100 µM | COLO 205 > 100 µM | OVCAR-3 > 100 µM | SNB-19 > 100 µM | PC-3 > 100 µM | HOP-62 > 100 µM | CAKI-1 > 100 µM | RPMI-8226 > 100 µM | SK-MEL-5 > 100 µM | EKVX > 100 µM | OVCAR-8 > 100 µM | SF-295 > 100 µM | OVCAR-4 > 100 µM | HL-60 > 100 µM | KM12 > 100 µM | SF-539 > 100 µM | A549 > 100 µM | NCI/ADR-RES > 100 µM | HT-29 > 100 µM | LOX IMVI > 100 µM | MCF7 > 100 µM | NCI-H522 > 100 µM | MDA-MB-231 > 100 µM | UO-31 > 100 µM | SNB-75 > 100 µM | MOLT-4 > 100 µM | SK-MEL-2 > 100 µM | CCRF-CEM > 100 µM | BT-549 > 100 µM | RXF 393 > 100 µM | NCI-H226 > 100 µM | U-251 > 100 µM | A498 > 100 µM | DU-145 > 100 µM | Malme-3M > 100 µM | OVCAR-5 > 100 µM | HCC 2998 > 100 µM
